In patent publication US20260055088A1, “HETEROCYCLIC COMPOUND, METHOD FOR PREPARING SAME, AND PHARMACEUTICAL USE THEREOF” (Jiangsu Hengrui Pharmaceuticals Co., Ltd., priority 2022, published 2026):

Columns and labels:
[1] = target: Nav1.8 ion channel stably expressed on HEK293 cells (Homo sapiens (Human), UniProt Q9Y5Y9); assay: Inhibitory activity against Nav1.8, manual patch clamp; type: cell-based; conditions: resting protocol (-80 mV to 10 mV), 1 μM TTX, read-out: IC50 for the inhibition of Nav1.8 channel activity
Description: The objective of the experiment was to investigate the effects of the compounds on the Nav1.8 ion channel in ex vivo experiments. The Nav1.8 ion channel is stably expressed on HEK293 cells. After the Nav1.8 current stabilized, the effects of the compounds on the Nav1.8 ion channel were obtained by comparing the magnitudes of the Nav1.8 currents before and after the compounds were applied.
• 1) A patch clamp amplifier: patch clamp PC-505B (WARNER instruments)/MultiClamp 700A (Axon instrument) • 2) A digital-to-analog converter: Digidata 1440A (Axon CNS)/Digidata 1550A (Axon instruments) • 3) A micromanipulator: MP-225 (SUTTER instrument) • 4) An inverted microscope: TL4 (Olympus) • 5) Glass micropipette puller: PC-10 (NARISHIGE) • 6) Microelectrode glass capillaries: B12024F (Wuhan VitalSense Scientific Instruments Co., Ltd.) • 7) Dimethyl sulfoxide (DMSO) D2650 (Sigma-Aldrich) • 8) TTX AF3014 (Affix Scientific)
The compounds for preparing the intracellular and extracellular fluids were purchased from Sigma (St. Louis, MO) except for the NaOH and KOH for the acid-base titrations. The extracellular fluid (mM) was: NaCl, 137; KCl, 4; CaCl2, 1.8; MgCl2, 1; HEPES, 10; glucose, 10; pH 7.4 (NaOH titration). The intracellular fluid (mM) was: aspartic acid, 140; MgCl2, 2; EGTA, 11; HEPES, 10; pH 7.2 (CsOH titration). All test and control compound solutions contained 1 μM TTX.
The test compounds were stored at a concentration of 9 mM in dimethyl sulfoxide (DMSO). On the testing day, the compounds were further dissolved in the extracellular fluid to prepare the required concentrations.
1) After the compounds were prepared into solutions with specified concentrations, the compound solutions were sequentially added to channels in ascending order according to their concentrations, and each channel was labeled.
2) A cell was transferred to the perfusion chamber. Positive pressure was applied inside the electrode, and the electrode tip was brought into contact with the cell. The three-way valve of the suction device was switched to the state where all three ways were open, and negative pressure was then applied to the electrode, allowing a high-resistance seal to form between the electrode and the cell. The application of negative pressure was continued to rupture the cell membrane, leading to the formation of a current pathway.
3) After the cell membrane rupture current stabilized, perfusion was performed with different concentrations in sequence. If the current remained stable for at least one minute, perfusion was performed with the next concentration.
4) The perfusion chamber was cleaned. The perfusion chamber was rinsed with the compound solutions in descending order according to their concentrations, with each concentration applied for 20 s. Finally, the perfusion chamber was rinsed with the extracellular fluid for 1 min.
The cell was clamped at −80 mV and then depolarized to 10 mV using a square wave lasting for 10 ms to obtain a Nav1.8 current. This procedure was repeated once every 5 seconds. The maximum current induced by the square wave was detected. After the current stabilized, perfusion was performed with the test compounds. After the reaction stabilized, the strength of the blocking was calculated.
The data were stored on a computer system and analyzed. Data acquisition and analysis were performed using pCLAMP 10 (Molecular Devices, Union City, CA), and the results were reviewed by a manager. “Current stabilized” means that the changes in current over time were within a limited range. The magnitude of the current after stabilization was used to calculate the effect of the compound at this […].
The inhibitory activity of the compounds of the present disclosure against Nav1.8 was determined through the above assay.

[2] = Pharmacokinetic evaluation in SD rats (i.g.); type: in vivo; conditions: male, Sprague-Dawley (SD), rat, plasma, po, 50 mg/kg
Protocol: SD rats were used as test animals. After intragastric (i.g.) administration of the example compounds to SD rats, the plasma concentrations of the compounds at different time points were determined by the LC/MS/MS method. The pharmacokinetic behaviors of the compounds of the present disclosure in SD rats were studied, and their pharmacokinetic profiles were evaluated.
Compounds 16 and 32: Four male SD rats, provided by Vital River Laboratory Animal Technology Co., Ltd. The animals were fasted overnight and then intragastrically dosed.
Compound 38: Two male SD rats, provided by Zhejiang Vital River Laboratory Animal Technology Co., Ltd. The animals were fasted overnight and then intragastrically dosed.
Compounds 16 and 32: Certain amounts of the test compounds were weighed out, and 5% DMSO+5% tween 80+90% normal saline was added to prepare 0.2 mg/mL colorless clear solutions.
Compound 38: A certain amount of the test compound was weighed out, and 25% PEG400+75% (10% TPGS+1% HPMC K100LV) was added to prepare a 5 mg/mL colorless clear solution.
Compounds 16 and 32: The administration dose was 2 mg/kg, and the administration volume was 10.0 mL/kg.
Compound 38: The administration dose was 50 mg/kg, and the administration volume was 10.0 mL/kg.
(§1) 0.2-mL blood samples were collected from the orbit before administration and 0.25, 0.5, 1.0, 2.0, 4.0, 6.0, 8.0, 11.0, and 24.0 h after administration, placed into EDTA-K2 anticoagulation test tubes, and centrifuged at 10,000 rpm for 1 min (4° C.), and the plasma was separated within 1 h and stored with dry ice before analysis. The procedures from the blood collection to the centrifugation were performed under ice-bath conditions. Access to food was given 2 h after administration.
Compounds 16 and 32: Determination of the plasma concentrations of the test compounds in SD rats after the compounds were administered at different concentrations: A 25-μL sample of the SD rat plasma collected at each time point after administration was taken, and 200 μL of acetonitrile containing an internal standard (verapamil, 100 ng/mL) was added. The mixture was vortexed and centrifuged at 3700 rpm for 10 min. 0.1 μL of the supernatant was taken for LC/MS/MS analysis.
Compound 38: Determination of the plasma concentration of the test compound in SD rats after the compound was administered at different concentrations: A 25-μL sample of the SD rat plasma collected at each time point after administration was taken, and 200 μL of acetonitrile containing an internal standard (dexamethasone, 100 ng/mL) was added. The mixture was vortexed and centrifuged at 4000 rpm for 15 min. 1 μL of the supernatant was taken for LC/MS/MS analysis.

[3] = Pharmacokinetic evaluation in CD-1 mice (i.g.); type: in vivo; conditions: male, mouse, plasma, po, 100 mg/kg
Protocol: CD-1 mice were used as test animals. After intragastric (i.g.) administration of the compound of the present disclosure to CD-1 mice, the plasma concentrations of the compound at different time points were determined by the LC/MS/MS method. The pharmacokinetic behavior of the compound of the present disclosure in CD-1 mice was studied, and its pharmacokinetic profile was evaluated.
Nine male CD-1 mice (3 mice per time point), provided by Vital River Laboratory Animal Technology Co., Ltd. (license: SCXK (Zhejiang) 2019-0001). The mice were intragastrically dosed.
A certain amount of the test compound was weighed out, and 25% PEG400+75% (10% TPGS+1% HPMC K100LV) was added to prepare a 10 mg/mL yellowish suspension.
The administration dose was 100 mg/kg, and the administration volume was 10 mL/kg.
as §1, with “The intragastric administration groups: 0.1-mL” for “0.2-mL”, “at −80° C.” for “with dry ice”, “conditions.” for “conditions. Access to food was given 2 h after administration.”
Determination of the plasma concentration of the test compound in CD-1 mice after the compound was administered at different concentrations: A 20-μL sample of the CD-1 mouse plasma collected at each time point after administration was taken, and 200 μL of acetonitrile containing an internal standard (dexamethasone, 100 ng/mL) was added to each sample to precipitate protein. The mixture was vortexed for 5 min and centrifuged at 4000 rpm for 15 min. 40 μL of the supernatant was taken, and 120 μL of water was added. The mixture was vortexed for 5 min, and 0.5 μL of the mixture was taken for LC/MS/MS analysis.

[4] = Pharmacokinetic evaluation in dogs (i.g.); type: in vivo; conditions: both sexes, dog, plasma, po, 2 mg/kg
Protocol: Dogs were used as test animals. After intragastric (i.g.) administration of the example compound to dogs, the plasma concentrations of the compound at different time points were determined by the LC/MS/MS method. The pharmacokinetic behavior of the compound of the present disclosure in dogs was studied, and its pharmacokinetic profile was evaluated.
The compound of Example 43.
Four dogs, with an equal number of males and females, provided by Weifang Shengnuo Laboratory Animal Breeding Co., Ltd (license: SCXK (Beijing) 2020-0009) and Beijing Institute of Xieerxin Biology Resource Co., Ltd (license: SCXK (Shandong) 20230001). The animals were fasted overnight and then intragastrically dosed.
A certain amount of the example compound was weighed out, and 5% DMSO+20% PG+20% PEG400+55% normal saline was added to prepare a […] colorless clear solution.
The administration dose was 2 mg/kg, and the administration volume was 10.0 mL/kg.
as §1, with “0.5-mL” for “0.2-mL”, “a forelimb vein” for “the orbit”, “11.0, 24.0, 48.0,” for “11.0,”, “72” for “24.0”
Determination of the plasma concentration of the test compound in dogs after the compound was administered at different concentrations: A 50-μL sample of the dog plasma collected at each time point after administration was taken, and 250 μL of acetonitrile containing an internal standard (labetalol, 1 μg/mL) was added. The mixture was vortexed and centrifuged at 3700 rpm for 10 min. 0.5 μL of the supernatant was taken for LC/MS/MS analysis.

[5] = read-out: Area under curve AUC0-t
[6] = read-out: Half-life T½ (converted)
[7] = read-out: Plasma concentration Cmax

Row | SMILES | IC50 [1] | AUC(0-t) [2, 5] | CL/F ([2]; read-out: Clearance rate CL/F) | half-life [2, 6] | Cmax [2, 7] | AUC(0-t) [3, 5] | CL/F ([3]; read-out: Clearance rate CL/F) | half-life [3, 6] | Cmax [3, 7] | AUC(0-t) [4, 5] | CL/F ([4]; read-out: Clearance rate CL/F) | half-life [4, 6] | Cmax [4, 7]
1 | COc1c([C@H]2[C@H](C(=O)Nc3ccnc(C4(N)CC4)c3)O[C@@](C)(C(F)(F)F)[C@H]2C)ccc(F)c1F [Example 38, (2R,3S,4S,5R)—N-(2-(1-Aminocyclopropyl)pyridin-4-yl)-3-(3,4-difluoro-2-methoxyphenyl)-4,5-dimethyl-5-(trifluoromethyl)tetrahydrofuran-2-carboxamide] | 2.2 nM | 18400 ng·h/mL | 42 mL/min/kg | 5.84 h | 1440 ng/mL | 76700 ng·h/mL | 20.3 mL/min/kg | 5.8 h | 6280 ng/mL |  |  |  | 
2 | COc1c([C@H]2[C@H](C(=O)Nc3cc[n+]([O-])c(/C(N)=N/O)c3)O[C@@](C)(C(F)(F)F)[C@H]2C)ccc(F)c1F [Example 43, 4-((2R,3S,4S,5R)-3-(3,4-Difluoro-2-methoxyphenyl)-4,5-dimethyl-5-(trifluoromethyl)tetrahydrofuran-2-carboxamido)-2-((Z)—N′-hydroxycarbamimidoyl)pyridine 1-oxide] | 0.3 nM |  |  |  |  |  |  |  |  | 250000 ng·h/mL | 0.128 mL/min/kg | 34.5 h | 5680 ng/mL
